Source: US12553055B2, “Auxin-inducible degron system kit and use thereof” (Inter-University Research Institute Corporation Research …, priority 2019, dated 2026)

How the values were obtained:
[1] = molecular target: T1, RAD21-mAID-Clover (RAD21-mAC) cell expressing OsTIR1(F74G) (Oryza sativa subsp. japonica, UniProt Q7XVM8, F74G); assay: RAD21-mAC degradation in HCT116 cell expressing OsTIR1(F74G); assay type: cell-based, human
T1 construct: expressed in transfected cells; host or cells: human HCT116 constantly expressing OsTIR1(F74G); RAD21 tagged by genome editing
Procedure: (§1) A human HCT116 cell constantly expressing OsTIR1(F74G) was used as a material, an RAD21-mAID-Clover (RAD21-mAC) cell was generated by genome editing, and an effect of the addition of 5-Ph-IAA was confirmed. As shown in FIGS. 13(A) and (B), the expression level of RAD21-mAC was […] in a cell expressing OsTIR1(F74G) than in a cell expressing OsTIR1(WT) at 0 minutes before addition, and basal degradation was shown in conventional AID systems.

[2] = molecular target: T2, SMC2, CTCF and POLR2A to which mAID is added (Oryza sativa subsp. japonica, UniProt Q7XVM8, F74G); assay: Degradation of mAID fused SMC2, CTCF and POLR2A in HCT116 constitutively expressing OsTIR1(F74G); assay type: cell-based, human; settings: 1 μM
T2 construct: expressed in transfected cells; host or cells: HCT116 constitutively expressing OsTIR1(F74G); endogenous genes tagged
Source text: Regarding aSMC2 condensin complex, a CTCF insulator protein or the maximum subunit of RNA polymerase 2 (POLR2A) in which it was difficult to produce an AID cell line using an HCT116 cell constantly expressing OsTIR1(WT), whether or not a cell line can be generated with a cell constitutively expressing OsTIR1(F74G) was examined.

[3] = molecular target: T3, OsTIR1(F74G)/DHC1-mAID-Clover expressing cell (Oryza sativa subsp. japonica, UniProt Q7XVM8, F74G); assay: Degradation induction test of DHC1 (microscopy, Western blotting); assay type: cell-based, human
T3 construct: expressed in transfected cells; host or cells: HCT116; OsTIR1(F74G) gene at the AAVS1 locus; endogenous DHC1 tagged by CRISPR/Cas9 homologous recombination
Procedure: A plasmid vector having mAID, clover and a neomycin resistance gene and having a homologous sequence with respect to a DHC1 gene so as to sandwich mAID and the neomycin resistance gene was introduced into the OsTIR1(WT)-expressing HCT116 cell or OsTIR1(F74G)-expressing HCT116 cell using a CRISPR/Cas9 system, and homologous recombination with the endogenous DHC1 gene was performed. Next, after selection by G418, the formed colony was dyed using crystal violet. “DHC1” is the abbreviation for dynein heavy chain 1.
A degradation induction test of DHC1 was performed using the HCT116 cell expressing OsTIR1(F74G) on which homologous recombination had been performed in the above-described section 2 (hereinafter, referred to as “OsTIR1(F74G)/DHC1-mAID-Clover expressing cell”).
The compound indicated by the formula (I-2) (also referred to as 5-Ph-IAA) was added to the OsTIR1(F74G)/DHC1-mAID-Clover expressing cell, and the appearance of the cell after 24 hours was observed (FIG. 4(A)).
Furthermore, the degradation of DHC1 was confirmed by Western blotting (FIG. 4(B)).
A CRISPR plasmid for adding a degron tag and two donors each having a neomycin-resistant marker or a hygromycin-resistant marker were transfected into a parent cell line constitutively expressing OsTIR1(WT or F74G) (refer to FIG. 14). In an OsTIR1(F74G) expressing cell, a colony was formed in the presence of G418 and hygromycin, and tags were added to DHC1 genes at both alleles (refer to FIG. 15(A)). In a cell expressing OsTIR1(WT), no colony was formed. […] This coincides with the fact that DHC1 is essential for the formation of a spindle that is formed during mitosis.

[4] = molecular target: T4, mAID-EGFP-POLD1 (Oryza sativa subsp. japonica, UniProt Q7XVM8, F74G); assay: Western blotting of mAID-EGFP-POLD1 degradation in HeLa cell (transposon vector + CRISPR-KO); assay type: cell-based, human; settings: anti-POLD1 antibody, clones #1 to #3
T4 construct: P2A linker (self-cleaving; remnant); expressed in transfected cells; host or cells: HeLa; transposon vector plus CRISPR-KO vector
Source text: (§2) In this degradation system, (1) a transposon vector in which an OsTIR1(F74G) gene and an mAID-target gene are connected by a P2A linker gene and (2) a CRISPR-KO vector for knocking out an endogenous target gene containing gRNA and a Cas9 gene are contained.
(§3) In this degradation system, the OsTIR1(F74G) gene and the mAID-target gene in a genome are integrated by the transposon vector, and an endogenous target gene is knocked out by the CRISPR-KO vector.
(§4) The transposon vector in which an OsTIR1(F74G) gene and an mAID-EGFP-CENPH or mAID-EGFP-POLD1 target gene were connected by a P2A linker gene was constructed, and this vector was introduced into a HeLa cell together with the CRISPR-KO vector targeting an endogenous CENPH or POLD1 gene. 5-Ph-IAA was added to such a cell, and the degradation of the target protein was confirmed by Western blotting (FIG. 6).

[5] = molecular target: T5, OsTIR1(F74G)/mAID-EGFP-NLS expressing cell (Oryza sativa subsp. japonica, UniProt Q7XVM8, F74G); assay: FACS analysis of mAID-EGFP-NLS reporter degradation in OsTIR1(F74G) expressing HCT116 cell; assay type: cell-based, human
T5 construct: expressed in transfected cells; host or cells: HCT116 (human colon adenocarcinoma-derived cell)
Procedure: (§5) An HCT116 cell (human colon adenocarcinoma-derived cell) having DNA in which an OsTIR1(WT) or OsTIR1(F74G) and an mAID-EGFP (green fluorescent protein)-NLS (nuclear localization signal) were encoded through a P2A sequence inserted onto a chromosome by a transposon (hereinafter, referred to as “OsTIR1(WT)/mAID-EGFP-NLS expressing cell” or “OsTIR1(F74G)/mAID-EGFP-NLS expressing cell”) was prepared (refer to FIG. 1).
(§6) The auxin analog (concentration in culture medium: 0, 200 μM) was added to the OsTIR1(F74G)/mAID-EGFP-NLS expressing cell and cultured for 24 hours. In addition, as a control, a cell containing an auxin added to the OsTIR1(WT)/mAID-EGFP-NLS expressing cell was also prepared.
(§7) After 24 hours from the addition of the auxin analog, the cells were collected, and FACS analysis was performed.
(§8) Furthermore, the same experiment was performed by adding 100 μM of an auxin to the OsTIR1(WT)/mAID-EGFP-NLS expressing cell, adding 1 μM of 5-Ph-IAA to the OsTIR1(F74G)/mAID-EGFP-NLS expressing cell, collecting the cells after four hours, and performing FACS analysis.
(§9) In order to compare OsTIR1(WT) and OsTIR1(F74G) in more detail, the degradation of the mAID-EGFP-NLS reporter was induced using IAA (auxin) and 5-Ph-IAA in different doses, respectively (refer to FIG. 10(A)). […] DC 50 values (concentrations for 50% degradation) were 300±30 nM and 0.45±0.01 nM in OsTIR1(WT) and OsTIR1(F74G), respectively, and it was confirmed that the system in which 5-Ph-IAA was used functioned at an approximately 670-times lower concentration compared with conventional auxin-inducible degron systems.
In order to investigate dynamics over time attributed to the removal of a target protein, samples after a lapse of time were taken, and the expression levels of the reporter were observed (refer to FIG. 10(B)). […]

[6] = tested on: HCT116 cell; assay: Influence of 5-Ph-IAA treatment on HCT116 cell (cell cycle, colony formation); assay type: cell-based, human; settings: 1 μM
Procedure: As shown in FIG. 9(A) in which the influence of the treatment with 1 μM of 5-Ph-IAA on the HCT116 cell was investigated, no influence was shown on the cell cycle. As shown in FIG. 9(B), no change in the colony formation efficiency was shown. It was confirmed that 5-Ph-IAA is an effective ligand and has no toxicity at 1 μM.

[7] = molecular target: T6, OsTIR1(F74A)/mAID-EGFP-NLS expressing cell (Oryza sativa subsp. japonica, UniProt Q7XVM8, F74A); assay: FACS analysis of mAID-EGFP-NLS reporter degradation in OsTIR1(F74A) expressing cell clones; assay type: cell-based, human
T6 construct: expressed in transfected cells
Procedure: Furthermore, the same experiment was also performed on three clones using an OsTIR1(F74A)/mAID-EGFP-NLS expressing cell.

[8] = tested on: yeast strains with mAID tag on MCM10, SLD3 or CDC45; assay: Growth of mAID-tagged yeast strains expressing OsTIR1(WT, F74G or F74A) on plates; assay type: cell-based
Source text: In order to confirm that the AID2 system functions even in yeasts, OsTIR1(WT, F74G or F74A) was introduced into a URA3 gene locus under the control of a GAL1-10 promoter (refer to FIG. 12(A)). After that, an mAID tag was attached to a gene that encodes MCM10, SLD3 or CDC45, which is an essential replication initiator.

[9] = molecular target: T7, mAID-EGFP-CENPH (Oryza sativa subsp. japonica, UniProt Q7XVM8, F74G); assay: Western blotting of mAID-EGFP-CENPH degradation in HeLa cell (transposon vector + CRISPR-KO); assay type: cell-based, human; settings: anti-CENPH antibody
T7 construct: P2A linker (self-cleaving; remnant); expressed in transfected cells; host or cells: HeLa; transposon vector plus CRISPR-KO vector
Source text: as §2, §3, §4

[10] = molecular target: T8, RAD21-mAID-Clover (RAD21-mAC) cell expressing OsTIR1(WT) (Oryza sativa subsp. japonica, UniProt Q7XVM8); assay: RAD21-mAC degradation in HCT116 cell expressing OsTIR1(WT); assay type: cell-based, human; settings: after the addition of a ligand
T8 construct: expressed in transfected cells; host or cells: RAD21-mAC cell expressing OsTIR1(WT) (HCT116 implied)
T8 sequence (Q7XVM8 1-575): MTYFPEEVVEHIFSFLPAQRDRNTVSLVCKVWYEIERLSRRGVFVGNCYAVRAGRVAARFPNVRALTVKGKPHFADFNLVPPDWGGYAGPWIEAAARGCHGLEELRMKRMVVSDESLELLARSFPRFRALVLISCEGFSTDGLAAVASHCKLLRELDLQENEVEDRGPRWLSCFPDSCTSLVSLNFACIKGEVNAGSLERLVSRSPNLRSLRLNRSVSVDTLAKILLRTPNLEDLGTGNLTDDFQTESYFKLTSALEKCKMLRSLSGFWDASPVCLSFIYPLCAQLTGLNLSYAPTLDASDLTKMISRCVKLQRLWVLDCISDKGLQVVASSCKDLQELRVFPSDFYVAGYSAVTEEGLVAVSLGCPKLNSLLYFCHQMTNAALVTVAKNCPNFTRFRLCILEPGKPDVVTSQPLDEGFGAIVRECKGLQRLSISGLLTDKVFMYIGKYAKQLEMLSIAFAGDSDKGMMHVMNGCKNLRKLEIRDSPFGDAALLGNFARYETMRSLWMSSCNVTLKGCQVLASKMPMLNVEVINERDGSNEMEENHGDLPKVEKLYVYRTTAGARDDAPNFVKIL
Procedure: as §1

[11] = molecular target: T9, OsTIR1(WT)/mAID-EGFP-NLS expressing cell (Oryza sativa subsp. japonica, UniProt Q7XVM8); assay: FACS analysis of mAID-EGFP-NLS reporter degradation in OsTIR1(WT) expressing HCT116 cell (conventional system); assay type: cell-based, human
T9 construct: expressed in transfected cells; host or cells: HCT116 (human colon adenocarcinoma-derived cell)
Procedure: as §5, §6, §7, §8, §9
In order to investigate dynamics over time attributed to the removal of a target protein, samples after a lapse of time were taken, and the expression levels of the reporter were observed (refer to FIG. 10(B)).

Compound: O=C(O)Cc1c[nH]c2ccc(-c3ccccc3)cc12 [5-Ph-IAA, 5-phenyl-indole 3-acetic acid]
- cell cycle of RAD21-mAC degraded cells [1]: arrested in the G2/M phase
- sister chromatid cohesion of RAD21-mAC degraded cell [1]: profound defect
- T1/2 of RAD21-mAC ([1]; after the addition of a ligand): 11.7 min
- degradation of mAID fused targets (SMC2, CTCF, POLR2A) [2]: rapidly degraded
- cell cycle phenotype after DHC1-mAC degradation ([3]; 1 μM): arrested in mitosis
- mitotic spindle formation after DHC1-mAC degradation ([3]; 1 μM): strong defect in mitotic spindle formation
- degradation of DHC1-mAC ([3]; 1 μM, clone with tags at both alleles): more efficiently degraded
- cell phenotype after DHC1 degradation ([3]; after 24 hours): accumulation of cells in the mitotic period was observed
- degradation of DHC1-mAID-Clover fused protein (microscopy) ([3]; after 24 hours): degraded a DHC1-mAID-Clover fused protein
- degradation of DHC1 by Western blotting ([3]; clones #1 to #3): degradation of DHC1 and mAID was confirmed
- degradation of mAID-EGFP-POLD1 by Western blotting [4]: degradation of mAID-EGFP-POLD1 was confirmed
- effect of inducing the degradation of the mAID-EGFP-NLS reporter ([5]; 1 nM and 10 nM, compared with the other auxin analogs): stronger effect
- degradation of mAID-EGFP-NLS reporter ([5]; 1 μM, four hours): efficiently degraded
- half-life of reporter degradation ([5]; AID2 system, OsTIR1(F74G)): 62.3 ± 2.0 min
- times lower concentration compared with conventional auxin-inducible degron systems ([5]; DC50 OsTIR1(WT)/IAA versus OsTIR1(F74G)/5-Ph-IAA): approximately 670 times
- degradation of mAID-EGFP-NLS reporter in clones ([5]; OsTIR1(F74G) clones compared with OsTIR1(F74A) clone): sharper degradation
- recovery of reporter expression after exchange to culture medium containing no 5-Ph-IAA ([5]; OsTIR1(F74G), after degradation induction): fully recovered after three hours
- DC50 ([5]; read-out: DC 50 values (concentrations for 50% degradation), mAID-EGFP-NLS reporter, OsTIR1(F74G), HCT116): 0.45 ± 0.01 nM
- colony formation efficiency [6]: no change
- influence on the cell cycle [6]: no influence
- toxicity [6]: no toxicity
- degradation of mAID-EGFP-NLS reporter in clones [7]: degradation was induced
- growth of mAID-introduced yeast strains ([8]; plates containing 5 μM, OsTIR1(F74G or F74A)): strong growth inhibition
- degradation of mAID-EGFP-CENPH by Western blotting [9]: degradation of mAID-EGFP-CENPH was confirmed

Compound: O=C(O)Cc1c[nH]c2ccccc12 [IAA]
- T1/2 of RAD21-mAC [10]: 26.5 min
- growth of mAID-introduced yeast strains ([8]; 500 μM, OsTIR1(WT and F74A)): growth suppression
- degradation of mAID-EGFP-NLS reporter ([11]; 100 μM, four hours): the reporter was degraded
- half-life of reporter degradation ([11]; conventional system, OsTIR1(WT)): 147.1 ± 12.5 min
- DC50 ([11]; mAID-EGFP-NLS reporter, OsTIR1(WT), HCT116, read-out: DC 50 values (concentrations for 50% degradation)): 300 ± 30 nM
